Test results: the supplement of paper PMC9663587

Experiments:
YKL-5-124 = compound: C=CC(=O)Nc1ccc(C(=O)Nc2[nH]nc3c2CN(C(=O)N[C@H](CN(C)C)c2ccccc2)C3(C)C)cc1 [YKL-5-124]; experiment: GR value, 72 h; higher = faster growth (1 = untreated, <0 = killing);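 note: breast cancer and non-malignant breast epithelial lines, nine half-log doses, viable cells counted by Hoechst and LIVE/DEAD dye imaging versus time-zero plates and DMSO controls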
LEE011/Ribociclib = compound: CN(C)C(=O)c1cc2cnc(Nc3ccc(N4CCNCC4)cn3)nc2n1C1CCCC1 [LEE011/Ribociclib]; experiment: as above
[1] = compound: CC(=O)c1c(C)c2cnc(Nc3ccc(N4CCNCC4)cn3)nc2n(C2CCCC2)c1=O; experiment: as above
Flavopiridol = compound: CN1CC[C@H](c2c(O)cc(O)c3c(=O)cc(-c4ccccc4Cl)oc23)[C@H](O)C1 [Flavopiridol]; experiment: as above
[2] = compound: CCN1CCN(Cc2ccc(Nc3ncc(F)c(-c4cc(F)c5nc(C)n(C(C)C)c5c4)n3)nc2)CC1; experiment: as above
THZ1 = compound: CN(C)C/C=C/C(=O)Nc1ccc(C(=O)Nc2cccc(Nc3ncc(Cl)c(-c4c[nH]c5ccccc45)n3)c2)cc1 [THZ1]; experiment: as above
THZ531 = compound: CN(C)C/C=C/C(=O)Nc1ccc(C(=O)N2CCC[C@@H](Nc3ncc(Cl)c(-c4c[nH]c5ccccc45)n3)C2)cc1 [THZ531]; experiment: as above
[3] = compound: CCc1cnn2c(NCc3ccc[n+]([O-])c3)cc(N3CCCC[C@H]3CCO)nc12; experiment: as above
Buparlisib/NVP-BKM120 = compound: Nc1cc(C(F)(F)F)c(-c2cc(N3CCOCC3)nc(N3CCOCC3)n2)cn1 [Buparlisib/NVP-BKM120]
[4] = compound: CCN1CCN(Cc2ccc(Nc3ncc(F)c(-c4cc(F)c5nc(C)n(C(C)C)c5c4)n3)nc2)CC1
BSJ-03-123 = compound: CC(=O)c1c(C)c2cnc(Nc3ccc(N4CCN(CCOCCOCCOCCNC(=O)COc5cccc6c5C(=O)N(C5CCC(=O)NC5=O)C6=O)CC4)cn3)nc2n(C2CCCC2)c1=O [BSJ-03-123]
Cabozantinib = compound: COc1cc2nccc(Oc3ccc(NC(=O)C4(C(=O)Nc5ccc(F)cc5)CC4)cc3)c2cc1OC [Cabozantinib]
Paclitaxel = compound: CC(=O)O[C@H]1C(=O)[C@@]2(C)[C@H]([C@H](OC(=O)c3ccccc3)[C@]3(O)C[C@H](OC(=O)[C@H](O)[C@@H](NC(=O)c4ccccc4)c4ccccc4)C(C)=C1C3(C)C)[C@]1(OC(C)=O)CO[C@@H]1C[C@@H]2O [Paclitaxel]
[5] = compound: CCc1cnn2c(NCc3ccc[n+]([O-])c3)cc(N3CCCC[C@H]3CCO)nc12
SHP099 = compound: CC1(CCN(CC1)C2=CN=C(C(=N2)N)C3=C(C(=CC=C3)Cl)Cl)N [SHP099]
Vorinostat = compound: O=C(CCCCCCC(=O)Nc1ccccc1)NO [Vorinostat]
AZD5363 = compound: NC1(C(=O)N[C@@H](CCO)c2ccc(Cl)cc2)CCN(c2nc[nH]c3nccc2-3)CC1 [AZD5363]
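Throughout, for GR50, 72 h: breast cancer and non-malignant breast epithelial cell lines, Deep Dye Drop or Dye Drop imaging, nine half-log doses, GR normalized to time-zero plates and DMSO-only controls.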

## HCC1143
YKL-5-124; 0.001 µM
  GR value: 0.423 GR
YKL-5-124; 0.003162 µM
  GR value: 0.398 GR
YKL-5-124; 0.01 µM
  GR value: 0.336 GR
YKL-5-124; 0.03162 µM
  GR value: 0.241 GR
YKL-5-124; 0.1 µM
  GR value: 0.223 GR
YKL-5-124; 0.3162 µM
  GR value: 0.183 GR
YKL-5-124; 1 µM
  GR value: 0.142 GR
YKL-5-124; 3.162 µM
  GR value: 0.0598 GR
YKL-5-124; 10 µM
  GR value: -0.0734 GR
LEE011/Ribociclib; 0.001 µM
  GR value: 0.856 GR
LEE011/Ribociclib; 0.003162 µM
  GR value: 0.876 GR
LEE011/Ribociclib; 0.01 µM
  GR value: 0.848 GR
LEE011/Ribociclib; 0.03162 µM
  GR value: 0.74 GR
LEE011/Ribociclib; 0.1 µM
  GR value: 0.753 GR
LEE011/Ribociclib; 0.3162 µM
  GR value: 0.712 GR
LEE011/Ribociclib; 1 µM
  GR value: 0.72 GR
LEE011/Ribociclib; 3.162 µM
  GR value: 0.551 GR
LEE011/Ribociclib; 10 µM
  GR value: 0.311 GR
[1]; 0.0003162 µM
  GR value: 0.997 GR
[1]; 0.001 µM
  GR value: 1.01 GR
[1]; 0.003162 µM
  GR value: 1.01 GR
[1]; 0.01 µM
  GR value: 0.955 GR
[1]; 0.03162 µM
  GR value: 0.793 GR
[1]; 0.1 µM
  GR value: 0.652 GR
[1]; 0.3162 µM
  GR value: 0.503 GR
[1]; 1 µM
  GR value: 0.392 GR
[1]; 3.162 µM
  GR value: 0.275 GR
Flavopiridol; 0.0001 µM
  GR value: 1 GR
Flavopiridol; 0.0003162 µM
  GR value: 1.04 GR
Flavopiridol; 0.001 µM
  GR value: 0.952 GR
Flavopiridol; 0.003162 µM
  GR value: 0.964 GR
Flavopiridol; 0.01 µM
  GR value: 0.988 GR
Flavopiridol; 0.03162 µM
  GR value: 0.933 GR
Flavopiridol; 0.1 µM
  GR value: 0.722 GR
Flavopiridol; 0.3162 µM
  GR value: 0.175 GR
Flavopiridol; 1 µM
  GR value: -0.31 GR
[2]; 0.001 µM
  GR value: 0.881 GR
[2]; 0.003162 µM
  GR value: 0.924 GR
[2]; 0.01 µM
  GR value: 0.746 GR
[2]; 0.03162 µM
  GR value: 0.604 GR
[2]; 0.1 µM
  GR value: 0.406 GR
[2]; 0.3162 µM
  GR value: 0.282 GR
[2]; 1 µM
  GR value: 0.178 GR
[2]; 3.162 µM
  GR value: 0.142 GR
[2]; 10 µM
  GR value: -0.0908 GR
THZ1; 0.0001 µM
  GR value: 0.953 GR
THZ1; 0.0003162 µM
  GR value: 1.04 GR
THZ1; 0.001 µM
  GR value: 1 GR
THZ1; 0.003162 µM
  GR value: 0.989 GR
THZ1; 0.01 µM
  GR value: 0.908 GR
THZ1; 0.03162 µM
  GR value: 0.303 GR
THZ1; 0.1 µM
  GR value: -0.271 GR
THZ1; 0.3162 µM
  GR value: -0.266 GR
THZ1; 1 µM
  GR value: -0.31 GR
THZ531; 0.0001 µM
  GR value: 0.974 GR
THZ531; 0.0003162 µM
  GR value: 0.976 GR
THZ531; 0.001 µM
  GR value: 1.03 GR
THZ531; 0.003162 µM
  GR value: 0.957 GR
THZ531; 0.01 µM
  GR value: 1.02 GR
THZ531; 0.03162 µM
  GR value: 0.937 GR
THZ531; 0.1 µM
  GR value: 0.689 GR
THZ531; 0.3162 µM
  GR value: -0.125 GR
THZ531; 1 µM
  GR value: -0.228 GR
[3]; 0.0001 µM
  GR value: 0.993 GR
[3]; 0.0003162 µM
  GR value: 0.988 GR
[3]; 0.001 µM
  GR value: 0.99 GR
[3]; 0.003162 µM
  GR value: 1.04 GR
[3]; 0.01 µM
  GR value: 0.95 GR
[3]; 0.03162 µM
  GR value: -0.238 GR
[3]; 0.1 µM
  GR value: -0.231 GR
[3]; 0.3162 µM
  GR value: -0.252 GR
[3]; 1 µM
  GR value: -0.228 GR
Buparlisib/NVP-BKM120
  GR50, 72 h: 0.725 µM
[4]
  GR50, 72 h: 0.0703 µM
BSJ-03-123
  GR50, 72 h: 1.87 µM
Cabozantinib
  GR50, 72 h: > 10 µM
Paclitaxel
  GR50, 72 h: 0.00207 µM
[5]
  GR50, 72 h: 0.0151 µM
SHP099
  GR50, 72 h: > 10 µM
Vorinostat
  GR50, 72 h: 0.91 µM
AZD5363
  GR50, 72 h: > 10 µM
